Reference: PubChem BioAssay AID192 (DTP/NCI, 2004)
Values joined by “and” are separate entries in the source; they are usually repeats but may differ in a detail not shown here. Equal entries are not always repeated. Toxic doses and inconclusive results are not listed. How the source made its calls: active means survival T/C of 150% or more; inactive means T/C below 125% in these data.

Tested on: BDF1 mice, B16 melanoma ip, median survival T/C
Test: NCI In Vivo Anticancer Drug Screen. Data for tumor model B16 Melanoma (intraperitoneal) in B6D2F1 (BDF1) mice
Details: endpoint: median survival time, higher = longer survival
Outline: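 Tumor-bearing mice received test compound or vehicle. Survival or tumor size was then measured in both groups. The treated-group figure was divided by the control-group figure.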

[1] = dose: 100.0 mg/kg/injection, schedule: Q01DX009 (ip), vehicle: Klucel (hydroxypropylcellulose) (HPC)
[2] = dose: 200.0 mg/kg/injection, schedule: Q01DX009 (ip), vehicle: Klucel (hydroxypropylcellulose) (HPC)
[3] = dose: 400.0 mg/kg/injection, schedule: Q01DX009 (ip), vehicle: Klucel (hydroxypropylcellulose) (HPC)
[4] = dose: 100.0 mg/kg/injection, schedule: Q01DX009 (ip), vehicle: saline with Tween-80
[5] = dose: 200.0 mg/kg/injection, schedule: Q01DX009 (ip), vehicle: saline with Tween-80
[6] = dose: 50.0 mg/kg/injection, schedule: Q01DX009 (ip), vehicle: saline
[7] = dose: 50.0 mg/kg/injection, schedule: Q01DX009 (ip), vehicle: Klucel (hydroxypropylcellulose) (HPC)
[8] = dose: 12.5 mg/kg/injection, schedule: Q01DX009 (ip), vehicle: Klucel (hydroxypropylcellulose) (HPC)
[9] = dose: 25.0 mg/kg/injection, schedule: Q01DX009 (ip), vehicle: Klucel (hydroxypropylcellulose) (HPC)
[10] = dose: 100.0 mg/kg/injection, schedule: Q04DX003 (ip), vehicle: Klucel (hydroxypropylcellulose) (HPC)
[11] = dose: 200.0 mg/kg/injection, schedule: Q04DX003 (ip), vehicle: Klucel (hydroxypropylcellulose) (HPC)

Measured: T/C

Cc1ccc(C2CC3c4ccccc4C2C2CCCCN32)cc1 (stereo not given)
inactive: dose: 0.78 mg/kg/injection, schedule: Q01DX009 (ip), vehicle: water 112 % of control | dose: 1.56 mg/kg/injection, schedule: Q01DX009 (ip), vehicle: water 104 % of control | dose: 3.13 mg/kg/injection, schedule: Q01DX009 (ip), vehicle: water 99 % of control and 115 % of control | dose: 6.25 mg/kg/injection, schedule: Q01DX009 (ip), vehicle: water 107 % of control and 110 % of control | dose: 12.5 mg/kg/injection, schedule: Q01DX009 (ip), vehicle: water 102 % of control | dose: 25.0 mg/kg/injection, schedule: Q01DX009 (ip), vehicle: water 98 % of control

CC(=O)CC(=O)N1CCCCC1C (stereo not given)
inactive: [1] 109 % of control | [2] 112 % of control | [3] 110 % of control

CC(=O)Oc1cccc(C#N)c1
inactive: [4] 108 % of control | [5] 112 % of control | dose: 400.0 mg/kg/injection, schedule: Q01DX009 (ip), vehicle: saline with Tween-80 91 % of control

CC(=O)OC1CCC2(C)C(CC(=O)C(C)C23CCC2(C=COC2)O3)C1(C)C (stereo not given)
inactive: dose: 6.0 mg/kg/injection, schedule: Q01DX009 (ip), vehicle: Klucel (hydroxypropylcellulose) (HPC) 101 % of control | dose: 12.0 mg/kg/injection, schedule: Q01DX009 (ip), vehicle: Klucel (hydroxypropylcellulose) (HPC) 99 % of control | dose: 24.0 mg/kg/injection, schedule: Q01DX009 (ip), vehicle: Klucel (hydroxypropylcellulose) (HPC) 95 % of control | dose: 48.0 mg/kg/injection, schedule: Q01DX009 (ip), vehicle: Klucel (hydroxypropylcellulose) (HPC) 99 % of control

Cc1cc[n+](CCc2ccccc2)cc1
inactive: dose: 6.25 mg/kg/injection, schedule: Q01DX009 (ip), vehicle: saline with Tween-80 92 % of control | dose: 12.5 mg/kg/injection, schedule: Q01DX009 (ip), vehicle: saline with Tween-80 88 % of control | dose: 25.0 mg/kg/injection, schedule: Q01DX009 (ip), vehicle: saline with Tween-80 95 % of control | dose: 50.0 mg/kg/injection, schedule: Q01DX009 (ip), vehicle: saline with Tween-80 88 % of control

COc1cccc(NC(=O)Nc2ccccc2OC)c1
inactive: [1] 86 % of control | [2] 90 % of control | [3] 93 % of control

CC[N+]1(C2CCC3CCC2C3O)CCOCC1 (stereo not given)
inactive: dose: 25.0 mg/kg/injection, schedule: Q01DX009 (ip), vehicle: saline 105 % of control | [6] 105 % of control | dose: 100.0 mg/kg/injection, schedule: Q01DX009 (ip), vehicle: saline 105 % of control

CN(Cc1cnc2nc(N)nc(N)c2n1)c1ccc(C(=O)NC(CCC(=O)O)C(=O)O)cc1Br (stereo not given)
inactive: dose: 0.17 mg/kg/injection, schedule: Q01DX011 (ip), vehicle: saline 101 % of control | dose: 0.35 mg/kg/injection, schedule: Q01DX011 (ip), vehicle: saline 105 % of control | dose: 0.63 mg/kg/injection, schedule: Q01DX009 (ip), vehicle: other 101 % of control | dose: 0.7 mg/kg/injection, schedule: Q01DX011 (ip), vehicle: saline 101 % of control | dose: 1.25 mg/kg/injection, schedule: Q01DX009 (ip), vehicle: other 113 % of control

S=C(Nc1ccccc1)Nc1ccccc1S
inactive: [1] 95 % of control and 107 % of control | [2] 98 % of control and 111 % of control

Nc1cccc2c1C(=O)c1cccc(NC(=O)c3ccccc3)c1C2=O
inactive: [1] 90 % of control | [2] 106 % of control | [3] 90 % of control

CC(/C=N/N=C(N)N)=N\NC(N)=S
inactive: dose: 50.0 mg/kg/injection, schedule: Q01DX009 (ip), vehicle: distilled water + Tween-80 105 % of control | dose: 100.0 mg/kg/injection, schedule: Q01DX009 (ip), vehicle: distilled water + Tween-80 94 % of control

Cc1ccc(NC(=O)Nc2ccccc2Cl)cc1
inactive: dose: 100.0 mg/kg/injection, schedule: Q01DX009 (ip), vehicle: gum acacia 89 % of control

C=C(OC1C(C)=C2C(C1OC(=O)CCCCCCC)C(C)(OC(C)=O)CC(OC(=O)CCC)C1(O)C2OC(=O)C1(C)O)/C(C)=C/C (stereo not given)
inactive: dose: 0.37 mg/kg/injection, schedule: Q01DX009 (ip), vehicle: Klucel (hydroxypropylcellulose) (HPC) 97 % of control | dose: 1.5 mg/kg/injection, schedule: Q01DX009 (ip), vehicle: Klucel (hydroxypropylcellulose) (HPC) 99 % of control | dose: 3.0 mg/kg/injection, schedule: Q01DX009 (ip), vehicle: Klucel (hydroxypropylcellulose) (HPC) 115 % of control

CCN(CC)CC#CCCCCN(CC)CC
inactive: dose: 3.13 mg/kg/injection, schedule: Q01DX009 (ip), vehicle: saline 95 % of control | dose: 6.25 mg/kg/injection, schedule: Q01DX009 (ip), vehicle: saline 97 % of control | dose: 12.5 mg/kg/injection, schedule: Q01DX009 (ip), vehicle: saline 90 % of control | [6] 89 % of control

O=C1/C(=N/O)CCc2ccccc21
inactive: [7] 91 % of control | [1] 100 % of control

FC(F)(F)C(=Cc1nc2ccccc2s1)C(F)(F)F
inactive: dose: 6.25 mg/kg/injection, schedule: Q01DX009 (ip), vehicle: Klucel (hydroxypropylcellulose) (HPC) 103 % of control | [8] 100 % of control

CC(C)=CCC1(O)C(=O)c2ccccc2C1(O)C(=O)O (stereo not given)
inactive: [9] 92 % of control | [7] 101 % of control | [1] 90 % of control | [2] 93 % of control

CCCCCC(O)C1C(=O)OC(C)C(O)/C=C/C=C/C=C/C=C\C=C(\C)C(O)CC(O)CC(O)CC(O)CC(O)CC(O)CC1O (stereo not given)
inactive: dose: 2.5 mg/kg/injection, schedule: Q01DX009 (ip), vehicle: saline 120 % of control | dose: 5.0 mg/kg/injection, schedule: Q01DX009 (ip), vehicle: saline 97 % of control | dose: 10.0 mg/kg/injection, schedule: Q01DX009 (ip), vehicle: saline 88 % of control

S=C(SSSSC(=S)N1CCCCC1)N1CCCCC1
inactive: [1] 95 % of control | [2] 90 % of control | [3] 107 % of control

c1ccc(-c2nc3cnccc3o2)cc1
inactive: dose: 3.13 mg/kg/injection, schedule: Q04DX003 (ip), vehicle: Klucel (hydroxypropylcellulose) (HPC) 91 % of control | dose: 6.25 mg/kg/injection, schedule: Q04DX003 (ip), vehicle: Klucel (hydroxypropylcellulose) (HPC) 100 % of control | dose: 12.5 mg/kg/injection, schedule: Q04DX003 (ip), vehicle: Klucel (hydroxypropylcellulose) (HPC) 91 % of control and 97 % of control

CCc1ccc(C(C)(C)C)cc1
inactive: dose: 25.0 mg/kg/injection, schedule: Q04DX003 (ip), vehicle: Klucel (hydroxypropylcellulose) (HPC) 103 % of control | dose: 50.0 mg/kg/injection, schedule: Q04DX003 (ip), vehicle: Klucel (hydroxypropylcellulose) (HPC) 93 % of control | [10] 101 % of control | [11] 100 % of control

O=C(/C=C/C(=O)OCC(Cl)(Cl)Cl)OCC(Cl)(Cl)Cl
inactive: [4] 96 % of control | [5] 92 % of control

CCCCCc1ccccc1
inactive: [1] 106 % of control | [2] 110 % of control | [3] 90 % of control

COC(=O)C1C2OC(C(Br)C2Br)C1C(=O)OC (stereo not given)
inactive: [10] 103 % of control | [11] 105 % of control | dose: 400.0 mg/kg/injection, schedule: Q04DX003 (ip), vehicle: Klucel (hydroxypropylcellulose) (HPC) 101 % of control

Cc1ccccc1N1C(=O)CSC1=S
inactive: [8] 90 % of control | [9] 93 % of control

O=C(Cn1cc(F)c(=O)[nH]c1=O)c1ccco1
inactive: [7] 94 % of control | [1] 100 % of control | [2] 94 % of control
